What all share (assay): kinase activity assay (ADP-Glo or radioisotope-based), dose-response; Ki from IC50 by Cheng-Prusoff
Format in all cases: biochemical
Background: ADP-Glo first removes unused ATP, then detects ADP through luciferase.

The target of one assay is T1, Aurora B kinase (Homo sapiens, UniProt Q96GD4).
T1 construct: gene AURKB

The target in a further assay is T2, Aurora A kinase (Homo sapiens, UniProt O14965).
T2 construct: gene AURKA
T2 sequence (O14965 1-403): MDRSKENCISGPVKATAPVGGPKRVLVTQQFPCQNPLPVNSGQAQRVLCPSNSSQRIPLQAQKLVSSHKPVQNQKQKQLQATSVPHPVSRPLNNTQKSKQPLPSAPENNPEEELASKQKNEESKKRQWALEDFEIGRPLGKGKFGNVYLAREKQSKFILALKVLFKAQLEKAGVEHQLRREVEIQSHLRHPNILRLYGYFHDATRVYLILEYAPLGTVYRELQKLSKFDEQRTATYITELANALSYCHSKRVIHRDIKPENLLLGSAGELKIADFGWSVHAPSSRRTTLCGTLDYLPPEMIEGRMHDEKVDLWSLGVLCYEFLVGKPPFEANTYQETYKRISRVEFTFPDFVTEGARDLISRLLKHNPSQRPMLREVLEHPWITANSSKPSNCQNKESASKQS

The target in the next assay is PIM1 kinase (Homo sapiens, UniProt P11309).

As usually defined, the Ki is a dissociation constant, usually derived from enzyme kinetics or from competition with a known ligand.

T1 sequence (Q96GD4 whole entry): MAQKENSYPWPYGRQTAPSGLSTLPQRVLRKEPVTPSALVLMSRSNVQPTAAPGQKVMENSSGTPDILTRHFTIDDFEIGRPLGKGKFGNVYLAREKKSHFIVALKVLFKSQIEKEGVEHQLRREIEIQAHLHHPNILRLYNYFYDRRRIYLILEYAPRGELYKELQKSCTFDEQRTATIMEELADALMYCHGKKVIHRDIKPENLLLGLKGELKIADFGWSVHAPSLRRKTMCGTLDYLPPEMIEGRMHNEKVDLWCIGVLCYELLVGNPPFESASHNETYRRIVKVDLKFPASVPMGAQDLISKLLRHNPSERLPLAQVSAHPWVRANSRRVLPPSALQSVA
Sequence of PIM1 kinase (P11309 whole entry): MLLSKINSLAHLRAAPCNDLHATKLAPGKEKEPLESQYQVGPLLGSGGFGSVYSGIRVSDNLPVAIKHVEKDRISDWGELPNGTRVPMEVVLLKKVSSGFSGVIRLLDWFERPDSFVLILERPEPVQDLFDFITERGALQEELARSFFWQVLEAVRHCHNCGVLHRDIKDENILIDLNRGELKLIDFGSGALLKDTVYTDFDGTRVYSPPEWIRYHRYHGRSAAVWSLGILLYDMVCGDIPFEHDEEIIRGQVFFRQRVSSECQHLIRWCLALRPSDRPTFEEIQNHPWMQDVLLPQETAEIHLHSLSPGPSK

For the compound `Cc1cc(/C=C/C#N)cc(C)c1Nc1ccnc(Nc2ccc(C#N)cc2)n1` [rilpivirine, 4-[[4-[[4-[(1E)-2-cyanoethenyl]-2,6-dimethylphenyl]amino]-2-pyrimidinyl]amino]benzonitrile], the figures for the Ki at Aurora B kinase, at Aurora A kinase and at PIM1 kinase were 1820 nM, 116 nM and 522 nM, respectively.

Values taken from paper PMC9607353, “Combined In Silico and In Vitro Evidence Supporting an Aurora A Kinase Inhibitory Role of the Anti-Viral Drug Rilpivirine and an Anti-Proliferative Influence on Cancer Cells” (Pharmaceuticals, 2022).
